Activity calls are given as the source filed them.
Experiments:
Caspase-3 = target: T1, Caspase-3 (Homo sapiens, UniProt P42574); assay type: functional;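 further: Dose-response selectivity test against caspase-3 for candidate inhibitors of sentrin-specific proteases (SENPs)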
T1 sequence (P42574 whole entry): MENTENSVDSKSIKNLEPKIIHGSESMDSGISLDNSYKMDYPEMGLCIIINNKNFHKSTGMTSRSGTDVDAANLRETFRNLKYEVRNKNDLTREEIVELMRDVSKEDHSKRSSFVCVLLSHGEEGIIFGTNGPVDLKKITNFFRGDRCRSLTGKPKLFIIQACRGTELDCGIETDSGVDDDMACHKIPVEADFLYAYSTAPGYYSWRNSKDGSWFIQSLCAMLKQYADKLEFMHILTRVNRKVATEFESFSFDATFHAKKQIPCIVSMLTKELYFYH

[1] = target: T2, Sentrin-specific protease 8 (Homo sapiens, UniProt Q96LD8); assay type: functional;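 further: luminescence read-out of SENP8 inhibition, dose-response confirmation following an ultra-high-throughput screen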
T2 sequence (Q96LD8 whole entry): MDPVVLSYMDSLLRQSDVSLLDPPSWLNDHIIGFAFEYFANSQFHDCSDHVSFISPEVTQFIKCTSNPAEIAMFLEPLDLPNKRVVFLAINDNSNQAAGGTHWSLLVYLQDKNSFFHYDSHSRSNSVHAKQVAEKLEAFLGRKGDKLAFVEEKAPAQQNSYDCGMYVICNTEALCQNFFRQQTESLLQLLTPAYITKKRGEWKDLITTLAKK

[2] = target: T3, Sentrin-specific protease 6 (Homo sapiens, UniProt Q9GZR1); assay type: functional;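 further: Luminescence-based dose-response confirmatory assay of SENP6 inhibition, following up an ultra-high-throughput screen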
T3 sequence (Q9GZR1 whole entry): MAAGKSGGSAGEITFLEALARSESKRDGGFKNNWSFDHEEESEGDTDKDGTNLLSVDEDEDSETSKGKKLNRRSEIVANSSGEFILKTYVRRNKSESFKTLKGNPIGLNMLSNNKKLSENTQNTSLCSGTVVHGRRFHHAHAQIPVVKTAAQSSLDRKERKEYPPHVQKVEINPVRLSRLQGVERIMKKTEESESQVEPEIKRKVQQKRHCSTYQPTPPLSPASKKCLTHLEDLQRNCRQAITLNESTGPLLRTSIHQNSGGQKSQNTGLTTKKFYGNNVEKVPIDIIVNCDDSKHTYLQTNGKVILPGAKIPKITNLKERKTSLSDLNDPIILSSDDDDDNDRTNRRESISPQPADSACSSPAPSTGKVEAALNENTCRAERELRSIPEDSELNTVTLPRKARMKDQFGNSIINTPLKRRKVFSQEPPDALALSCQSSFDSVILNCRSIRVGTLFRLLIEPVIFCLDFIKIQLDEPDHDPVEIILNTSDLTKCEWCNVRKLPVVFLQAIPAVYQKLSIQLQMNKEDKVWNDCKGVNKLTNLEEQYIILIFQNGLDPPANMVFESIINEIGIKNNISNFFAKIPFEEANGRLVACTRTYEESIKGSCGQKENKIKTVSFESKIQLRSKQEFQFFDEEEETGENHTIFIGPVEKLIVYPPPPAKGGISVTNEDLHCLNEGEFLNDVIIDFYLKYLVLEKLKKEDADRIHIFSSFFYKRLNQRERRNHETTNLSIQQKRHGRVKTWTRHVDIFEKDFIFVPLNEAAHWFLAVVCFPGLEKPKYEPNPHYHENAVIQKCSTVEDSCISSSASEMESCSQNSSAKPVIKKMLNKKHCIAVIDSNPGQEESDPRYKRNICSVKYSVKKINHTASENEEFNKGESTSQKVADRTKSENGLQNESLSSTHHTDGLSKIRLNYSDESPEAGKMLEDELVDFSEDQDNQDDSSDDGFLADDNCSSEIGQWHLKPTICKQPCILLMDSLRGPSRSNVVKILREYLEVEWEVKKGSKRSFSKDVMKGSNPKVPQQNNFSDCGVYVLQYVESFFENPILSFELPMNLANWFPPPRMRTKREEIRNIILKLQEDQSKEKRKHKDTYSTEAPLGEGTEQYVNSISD

[3] = target: T4, Runt-related transcription factor 1/Core-binding factor subunit beta (Homo sapiens, UniProt Q01196+Q13951); assay: Runt domain/CBFb-SMMHC interaction disruptors – biochemical, TR-FRET (AID 1438); assay type: protein assay
[4] = target: T5, Sentrin-specific protease 7 (Homo sapiens, UniProt Q9BQF6); assay type: functional;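 further: Luminescence-based dose-response confirmation of ultra-high-throughput screening hits, measuring inhibition of SENP7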
T5 sequence (Q9BQF6 whole entry): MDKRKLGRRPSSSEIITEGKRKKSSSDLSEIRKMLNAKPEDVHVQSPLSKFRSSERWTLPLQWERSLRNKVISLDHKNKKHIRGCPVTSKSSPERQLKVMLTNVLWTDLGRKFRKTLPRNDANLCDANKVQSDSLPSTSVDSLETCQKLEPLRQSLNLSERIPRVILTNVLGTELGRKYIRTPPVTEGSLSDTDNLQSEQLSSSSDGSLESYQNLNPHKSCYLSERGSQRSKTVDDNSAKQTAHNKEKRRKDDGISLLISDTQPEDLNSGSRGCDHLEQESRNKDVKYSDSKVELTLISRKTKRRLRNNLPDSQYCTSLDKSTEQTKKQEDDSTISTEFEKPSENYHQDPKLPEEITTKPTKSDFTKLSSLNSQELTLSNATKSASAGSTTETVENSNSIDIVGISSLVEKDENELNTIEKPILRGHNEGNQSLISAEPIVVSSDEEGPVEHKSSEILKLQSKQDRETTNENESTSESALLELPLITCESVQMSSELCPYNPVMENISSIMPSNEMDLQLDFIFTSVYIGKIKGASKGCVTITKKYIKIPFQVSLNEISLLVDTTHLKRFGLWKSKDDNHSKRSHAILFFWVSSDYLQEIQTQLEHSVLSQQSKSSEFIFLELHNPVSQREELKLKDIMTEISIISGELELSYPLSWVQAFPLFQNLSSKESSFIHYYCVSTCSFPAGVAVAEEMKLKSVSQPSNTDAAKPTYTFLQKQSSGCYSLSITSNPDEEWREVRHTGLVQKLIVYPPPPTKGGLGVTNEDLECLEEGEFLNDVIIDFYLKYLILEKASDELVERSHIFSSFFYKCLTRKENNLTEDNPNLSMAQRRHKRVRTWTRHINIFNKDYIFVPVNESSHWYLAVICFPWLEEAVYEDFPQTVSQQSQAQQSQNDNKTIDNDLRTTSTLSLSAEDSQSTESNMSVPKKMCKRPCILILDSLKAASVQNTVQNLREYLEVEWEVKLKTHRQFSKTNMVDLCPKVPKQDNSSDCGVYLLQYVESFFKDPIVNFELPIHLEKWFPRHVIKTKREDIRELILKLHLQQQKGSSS

[5] = target: T4, Runt-related transcription factor 1/Core-binding factor subunit beta; assay: disruptors of Runt domain/CBFb-SMMHC interaction – biochemical, FRET, Cerulean-Runt, Venus-CBFb-SMMHC, uHTS, […] (AID 1434); assay type: protein assay
[6] = target: T4, Runt-related transcription factor 1/Core-binding factor subunit beta; assay: Confirmation of compounds inhibiting the binding between the RUNX1 Runt domain and CBFb-SMMHC via a fluorescence resonance energy transfer (FRET) assay. [Related pubchem assays (depositor defined):AID1434, AID1438, AID1496, AID1550, AID1645]; assay type: protein assay
[7] = Luminescence Cell-Based Dose Response HTS to Identify Activators of Luciferase Translation or Activity in H4 […] Cells. [Related pubchem assays: 1829 (Project Summary), 1814 (Primary HTS)]; assay type: functional
[8] = target: T6, Zinc finger protein mex-5 (Caenorhabditis elegans, UniProt Q9XUB2); assay: potency of MEX-5 RNA-binding blockers – biochemical, C. elegans, fluorescence polarization, dose response (AID 1960)
T6 sequence (Q9XUB2 whole entry): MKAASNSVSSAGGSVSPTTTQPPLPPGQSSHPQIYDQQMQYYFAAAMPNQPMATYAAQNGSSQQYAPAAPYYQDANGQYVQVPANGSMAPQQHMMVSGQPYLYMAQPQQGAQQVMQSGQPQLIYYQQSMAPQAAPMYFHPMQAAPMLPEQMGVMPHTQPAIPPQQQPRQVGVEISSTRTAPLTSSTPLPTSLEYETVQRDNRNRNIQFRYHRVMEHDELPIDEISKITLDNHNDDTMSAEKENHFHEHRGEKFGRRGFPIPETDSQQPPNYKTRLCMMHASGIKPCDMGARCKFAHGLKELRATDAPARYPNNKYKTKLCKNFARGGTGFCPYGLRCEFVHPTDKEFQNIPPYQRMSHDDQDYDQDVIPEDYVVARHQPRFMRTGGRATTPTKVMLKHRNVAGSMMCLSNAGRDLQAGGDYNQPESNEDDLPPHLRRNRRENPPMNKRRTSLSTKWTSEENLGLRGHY

[9] = Luminescence Cell-Based Dose Response to Identify Activators of Luciferase Translation or Activity in H4-C Neuroglioblastoma Cells. [Related pubchem assays: 1829 (Project Summary), 1814 (Primary HTS)]; assay type: functional
H4 = assay: Luminescence Cell-Based Dose Response HTS to Identify Activators of 5'UTR Stem-Loop Driven Prion Protein mRNA Translation in H4 Neuroglioblastoma Cells. [Related pubchem assays: 1829 (Project Summary), 1814 (Primary HTS)]; assay type: functional; conditions: Homo sapiens
[10] = target: T7, RNA-binding protein pos-1 (Caenorhabditis elegans, UniProt G5EF15); assay: disruptors of C. elegans POS-1 RNA interaction – biochemical, fluorescence polarization, dose response (AID 1964);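 further: purified POS-1 fused to maltose binding protein made in E. coli; potency of compounds blocking POS-1 binding to fluorescent RNA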
T7 sequence (G5EF15 whole entry): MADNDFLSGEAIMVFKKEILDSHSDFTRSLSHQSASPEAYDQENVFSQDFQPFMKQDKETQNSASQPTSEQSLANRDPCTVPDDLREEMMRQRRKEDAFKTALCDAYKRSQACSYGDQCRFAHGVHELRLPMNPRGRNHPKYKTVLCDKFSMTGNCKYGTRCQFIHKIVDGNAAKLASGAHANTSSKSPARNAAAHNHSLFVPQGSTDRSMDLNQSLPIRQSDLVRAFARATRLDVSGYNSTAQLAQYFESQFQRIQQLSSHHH

[11] = Luminescence Cell-Based Dose Response to Identify Activators of 5'UTR Stem-Loop Driven Prion Protein mRNA Translation in H4-C Neuroglioblastoma Cells. [Related pubchem assays: 1829 (Project Summary), 1814 (Primary HTS)]; assay type: functional
[12] = Luminescence Cell-Based Dose Confirmation to Identify Activators of 5'UTR Stem-Loop Driven Alpha-Synuclein mRNA Translation in H4 Neuroglioblastoma Cells. [Related pubchem assays: 1829 (Project Summary), 1814 (Primary HTS)]; assay type: functional
Troponin, cardiac muscle = Troponin, cardiac muscle (Homo sapiens, UniProt P19429+P45379+P63316); assay: Fluorescence-based biochemical high throughput dose response assay for activators of the calcium sensitivity of cardiac Regulated Thin Filaments (RTF). [Related pubchem assays (depositor defined):AID493008, AID493018, AID504382, AID504383]; assay type: protein-complex assay

Row | SMILES | IC50 (Caspase-3) | IC50 [1] | IC50 [2] | IC50 [3] | IC50 [4] | IC50 [5] | IC50 [6] | EC50 [7] | EC50 [8] | EC50 [9] | EC50 (H4) | EC50 [10] | EC50 [11] | EC50 [12] | EC50 (Troponin, cardiac muscle)
1 | O=S(=O)(Nc1ccc(-c2nc3cccnc3s2)cc1)c1ccc(Cl)s1 | 31.2 µM (active) | 29.1 µM (active) | 25 µM (active) | 24 µM (active) | 18.8 µM (active) | 5.46 µM (active) | 1.87 µM (active) | – | – | – | – | – | – | – | –
2 | CN1C(=O)/C(=C/c2ccc(N3CCCCCC3)o2)C(=O)NC1=S | – | – | – | – | – | – | – | < 0.1 µM (active) | > 300 µM (inconclusive) | 0.462 µM (active) | 39.5 µM (active) | > 300 µM (not active) | 0.325 µM (active) | 0.206 µM (active) | 2.22 µM (active)

From ChEMBL document CHEMBL1201862, “PubChem BioAssay data set” (2004)
